In test [1] the target is WRN (BV08), human Werner helicase (Uniprot Q14191, amino acids 517-1235 with L1074F point mutation) (Homo sapiens (Human), UniProt Q14191, L1074F). Kind of test: WRN (BV08) ADP-Glo assay. The test is classed as biochemical. Conditions: class symbols A-E, read-out: ADP-Glo_hWRN_IC50. In general terms: In ADP-Glo the light output rises with the ADP produced.
For test [2], the system named is p21 induction in HCT116 cells. Kind of test: p21 induction in HCT116 cells. Format: cell-based. Conditions: HCT116 cells, 24 h compound incubation, read-out: P21_EC50. The procedure, abridged:
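HCT116 cells, 2,000/well, treated 24 h at 37 °C with 11-point compound dilutions in duplicate. Fixed, then immunostained for p21 and GAPDH and read by near-IR imaging at 800/700 nm. Normalized to DMSO (low) and reference WRN inhibitor (high) controls; EC50 from non-linear regression.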

Read-outs that look alike come from different tables or passages of the source.

WRN (BV08), human Werner helicase (Uniprot Q14191, amino acids 517-1235 with L1074F point mutation), sequence (Q14191 other isoform, or with tags, fused parts or gaps L1074F (already in the parent)): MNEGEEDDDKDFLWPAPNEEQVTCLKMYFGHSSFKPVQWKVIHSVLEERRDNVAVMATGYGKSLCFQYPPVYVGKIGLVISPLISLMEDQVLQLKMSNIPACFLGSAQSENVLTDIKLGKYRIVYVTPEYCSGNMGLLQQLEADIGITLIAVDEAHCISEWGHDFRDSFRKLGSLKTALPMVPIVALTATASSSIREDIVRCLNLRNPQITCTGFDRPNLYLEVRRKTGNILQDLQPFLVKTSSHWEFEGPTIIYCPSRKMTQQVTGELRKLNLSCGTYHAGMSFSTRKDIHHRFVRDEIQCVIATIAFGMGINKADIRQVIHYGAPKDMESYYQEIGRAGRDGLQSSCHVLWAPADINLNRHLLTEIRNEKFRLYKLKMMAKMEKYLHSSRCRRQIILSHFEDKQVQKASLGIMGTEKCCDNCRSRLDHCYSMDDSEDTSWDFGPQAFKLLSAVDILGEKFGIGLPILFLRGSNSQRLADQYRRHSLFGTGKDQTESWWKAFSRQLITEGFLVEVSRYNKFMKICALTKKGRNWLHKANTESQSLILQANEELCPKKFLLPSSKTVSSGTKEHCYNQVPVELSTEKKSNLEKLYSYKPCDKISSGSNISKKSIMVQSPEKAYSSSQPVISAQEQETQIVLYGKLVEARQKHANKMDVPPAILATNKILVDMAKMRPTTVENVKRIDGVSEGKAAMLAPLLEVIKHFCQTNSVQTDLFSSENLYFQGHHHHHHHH

Regarding `CCc1c(N2C[C@H]3CC[C@@H](C2)N3C(=O)c2ncnc(C)c2O)c(=O)c2nc(N(C)C)cnc2n1CC(=O)Nc1ccc(C(F)(F)F)cc1Cl` [I-206, N-[2-chloro-4-(trifluoromethyl)phenyl]-2-[2-(dimethylamino)-6-ethyl-7-[(1R,5S)-8-(5-hydroxy-6-methylpyrimidine-4-carbonyl)-3,8-diazabicyclo[3.2.1]octan-3-yl]-8-oxo-5H,8H-pyrido[2,3-b]pyrazin-5-yl]acetamide], the IC50 in test [1] fell in the range of 5 to 50 nM. For the same compound, the EC50 in test [2] (Homo sapiens, HCT-116, 24 h) is above 5000 nM.

For the compound `CCc1c(N2CCN(C(=O)c3ncnc(C)c3O)CC2)c(=O)c2nc(N3CCC34COC4)cnc2n1CC(=O)Nc1ccc(C(F)(F)F)cc1Cl` [I-207, N-[2-chloro-4-(trifluoromethyl)phenyl]-2-{6-ethyl-7-[4-(5-hydroxy-6-methylpyrimidine-4-carbonyl)piperazin-1-yl]-2-{6-oxa-1-azaspiro[3.3]heptan-1-yl}-8-oxo-5H,8H-pyrido[2,3-b]pyrazin-5-yl}acetamide], the IC50 in test [1] was 5 to 50 nM. For the same compound, the EC50 in test [2] (Homo sapiens, HCT-116, 24 h) was in the range of 2000 to 5000 nM.

As for `CCc1c(N2CCN(C(=O)c3ncnc(C)c3O)[C@H]3CC[C@@H]32)c(=O)c2nc(N(C)C)cnc2n1CC(=O)Nc1ccc(OC(F)(F)F)cc1F` [I-210, 2-[2-(dimethylamino)-6-ethyl-7-[(1S,6S)-5-(5-hydroxy-6-methylpyrimidine-4-carbonyl)-2,5-diazabicyclo[4.2.0]octan-2-yl]-8-oxo-5H,8H-pyrido[2,3-b]pyrazin-5-yl]-N-[2-fluoro-4-(trifluoromethoxy)phenyl]acetamide], the IC50 in test [1] lay in the range of 5 to 50 nM. Further, the EC50 in test [2] (Homo sapiens, HCT-116, 24 h) is below 500 nM.

On to `[2H]C([2H])([2H])N(c1nc2c(=O)c(N3CCN(C(=O)c4ncnc(C)c4O)[C@H]4CC[C@@H]43)c(CC)n(CC(=O)Nc3ccc(C(F)(F)F)cc3F)c2nc1C)C([2H])([2H])[2H]` [I-211], for which the IC50 in test [1] lay within 5 to 50 nM. For the same compound, in test [2] (Homo sapiens, HCT-116, 24 h), the EC50 was below 500 nM.

Take `CCc1c(N2CCN(C(=O)c3nccc(F)c3O)CC2)c(=O)c2nc(N(C)C)cnc2n1CC(=O)Nc1ccc(C(F)(F)F)cc1Cl` [I-212, N-[2-chloro-4-(trifluoromethyl)phenyl]-2-[2-(dimethylamino)-6-ethyl-7-[4-(4-fluoro-3-hydroxypyridine-2-carbonyl)piperazin-1-yl]-8-oxo-5H,8H-pyrido[2,3-b]pyrazin-5-yl]acetamide]: the IC50 in test [1] is 5 to 50 nM. In addition, the EC50 in test [2] (Homo sapiens, HCT-116, 24 h) is 500 to 2000 nM.

`CCc1c(C2=CCN(C(=O)c3ncnc(C)c3O)CC2)c(=O)c2nc(N(C)C)cnc2n1CC(=O)Nc1ccc(C(F)(F)F)cc1Cl` [I-213, N-[2-chloro-4-(trifluoromethyl)phenyl]-2-[2-(dimethylamino)-6-ethyl-7-[1-(5-hydroxy-6-methylpyrimidine-4-carbonyl)-1,2,3,6-tetrahydropyridin-4-yl]-8-oxo-5H,8H-pyrido[2,3-b]pyrazin-5-yl]acetamide]: in test [1], the IC50 lay in the range of 5 to 50 nM. The EC50 in test [2] (Homo sapiens, HCT-116, 24 h) is 500 to 2000 nM.

As to `[2H]C([2H])([2H])N(c1cnc2c(n1)c(=O)c(N1CCN(C(=O)c3ncnc(C)c3O)[C@H]3CC[C@@H]31)c(CC)n2CC(=O)Nc1ccc(C(F)(F)F)cc1F)C([2H])([2H])[2H]` [I-214, 2-{2-[di(2H3)methylamino]-6-ethyl-7-[(1S,6S)-5-(5-hydroxy-6-methylpyrimidine-4-carbonyl)-2,5-diazabicyclo[4.2.0]octan-2-yl]-8-oxo-5H,8H-pyrido[2,3-b]pyrazin-5-yl}-N-[2-fluoro-4-(trifluoromethyl)phenyl]acetamide], the IC50 in test [1] fell in the range of 5 to 50 nM. For the same compound, in test [2] (Homo sapiens, HCT-116, 24 h), the EC50 is below 500 nM.

As to `CCc1c(N2CCN(C(=O)c3ncnc(C)c3O)[C@@H]3CCC[C@H]32)c(=O)c2nc(N(C)C)cnc2n1CC(=O)Nc1ccc(C(F)(F)F)cc1Cl` [I-215, 2-{7-[(4aR,7aR)-4-(5-hydroxy-6-methylpyrimidine-4-carbonyl)-octahydro-1H-cyclopenta[b]pyrazin-1-yl]-2-(dimethylamino)-6-ethyl-8-oxo-5H,8H-pyrido[2,3-b]pyrazin-5-yl}-N-[2-chloro-4-(trifluoromethyl)phenyl]acetamide], the IC50 in test [1] was in the range of 100 to 500 nM. For the same compound, in test [2] (Homo sapiens, HCT-116, 24 h), the EC50 was above 5000 nM.

As to `CCc1c(N2CCN(C(=O)c3ncnc(C)c3O)C3(CCC3)C2)c(=O)c2nc(N(C)C)cnc2n1CC(=O)Nc1ccc(C(F)(F)F)cc1Cl` [I-216, N-[2-chloro-4-(trifluoromethyl)phenyl]-2-[2-(dimethylamino)-6-ethyl-7-[5-(5-hydroxy-6-methylpyrimidine-4-carbonyl)-5,8-diazaspiro[3.5]nonan-8-yl]-8-oxo-5H,8H-pyrido[2,3-b]pyrazin-5-yl]acetamide], the IC50 in test [1] fell in the range of 50 to 100 nM. Further, the EC50 in test [2] (Homo sapiens, HCT-116, 24 h) was above 5000 nM.

As to `CCc1c(N2CCN(C(=O)c3ncnc(C)c3O)CC2)c(=O)c2nc(N(C)S(C)(=O)=O)cnc2n1CC(=O)Nc1ccc(C(F)(F)F)cc1Cl` [I-217, N-[2-chloro-4-(trifluoromethyl)phenyl]-2-{6-ethyl-7-[4-(5-hydroxy-6-methylpyrimidine-4-carbonyl)piperazin-1-yl]-2-(N-methylmethanesulfonamido)-8-oxo-5H,8H-pyrido[2,3-b]pyrazin-5-yl}acetamide], the IC50 in test [1] was 100 to 500 nM. In addition, the EC50 in test [2] (Homo sapiens, HCT-116, 24 h) was above 5000 nM.

For the compound `CCc1c(N2CCN(C(=O)c3nccc(Cl)c3O)CC2)c(=O)c2nc(N(C)C)cnc2n1CC(=O)Nc1ccc(C(F)(F)F)cc1Cl` [I-218, 2-{7-[4-(4-chloro-3-hydroxypyridine-2-carbonyl)piperazin-1-yl]-2-(dimethylamino)-6-ethyl-8-oxo-5H,8H-pyrido[2,3-b]pyrazin-5-yl}-N-[2-chloro-4-(trifluoromethyl)phenyl]acetamide], in test [1], the IC50 was at most 5 nM. Besides, the EC50 in test [2] (Homo sapiens, HCT-116, 24 h) is 500 to 2000 nM.

On to `CCc1c(C2CCN(C(=O)c3ncnc(C)c3O)CC2)c(=O)c2nc(N(C)C)cnc2n1CC(=O)Nc1ccc(C(F)(F)F)cc1Cl` [I-221, N-[2-chloro-4-(trifluoromethyl)phenyl]-2-[2-(dimethylamino)-6-ethyl-7-[1-(5-hydroxy-6-methylpyrimidine-4-carbonyl)piperidin-4-yl]-8-oxo-5H,8H-pyrido[2,3-b]pyrazin-5-yl]acetamide], for which, in test [1], the IC50 is 5 to 50 nM. In test [2] (Homo sapiens, HCT-116, 24 h), the EC50 was above 5000 nM.

For `CCc1c(N2CCN(C(=O)c3ncnc(C)c3O)[C@H]3CC[C@@H]32)c(=O)c2nc(N(C)C)cnc2n1CC(=O)Nc1ccc(C(F)(F)F)nc1Cl` [I-222, N-[2-chloro-6-(trifluoromethyl)pyridin-3-yl]-2-[2-(dimethylamino)-6-ethyl-7-[(1S,6S)-5-(5-hydroxy-6-methylpyrimidine-4-carbonyl)-2,5-diazabicyclo[4.2.0]octan-2-yl]-8-oxo-5H,8H-pyrido[2,3-b]pyrazin-5-yl]acetamide], the IC50 in test [1] fell in the range of 5 to 50 nM. In test [2] (Homo sapiens, HCT-116, 24 h), the EC50 is below 500 nM.

`CCc1c(N2CCN(C(=O)c3ncnc(C)c3O)CC2)c(=O)c2nc(C3CCC3)cnc2n1CC(=O)Nc1ccc(C(F)(F)F)cc1Cl` [I-223, N-[2-chloro-4-(trifluoromethyl)phenyl]-2-{2-cyclobutyl-6-ethyl-7-[4-(5-hydroxy-6-methylpyrimidine-4-carbonyl)piperazin-1-yl]-8-oxo-5H,8H-pyrido[2,3-b]pyrazin-5-yl} acetamide]: in test [1], the IC50 was in the range of 5 to 50 nM. The EC50 in test [2] (Homo sapiens, HCT-116, 24 h) fell in the range of 500 to 2000 nM.

With `CCc1c(N2CCN(C(=O)c3ncnc(C)c3O)CC2)c(=O)c2nc(N3CCCC34CC4)cnc2n1CC(=O)Nc1ccc(C(F)(F)F)cc1Cl` [I-224, 2-(2-{4-azaspiro[2.4]heptan-4-yl}-6-ethyl-7-[4-(5-hydroxy-6-methylpyrimidine-4-carbonyl)piperazin-1-yl]-8-oxo-5H,8H-pyrido[2,3-b]pyrazin-5-yl)-N-[2-chloro-4-(trifluoromethyl)phenyl]acetamide], the IC50 in test [1] lay in the range of 5 to 50 nM. Moreover, the EC50 in test [2] (Homo sapiens, HCT-116, 24 h) lay in the range of 2000 to 5000 nM.

With `CCc1c(N2CCN(C(=O)c3c(OC)ncc(C)c3O)C[C@@H]2C)c(=O)c2nc(C3CC3)cnc2n1CC(=O)Nc1ccc(C(F)(F)F)cc1Cl` [I-225, N-[2-chloro-4-(trifluoromethyl)phenyl]-2-{2-cyclopropyl-6-ethyl-7-[(2S)-4-(4-hydroxy-2-methoxy-5-methylpyridine-3-carbonyl)-2-methylpiperazin-1-yl]-8-oxo-5H,8H-pyrido[2,3-b]pyrazin-5-yl}acetamide], the IC50 in test [1] was in the range of 5 to 50 nM. Moreover, the EC50 in test [2] (Homo sapiens, HCT-116, 24 h) was below 500 nM.

On to `[2H]C([2H])([2H])Nc1cnc2c(n1)c(=O)c(N1CCN(C(=O)c3ncnc(C)c3O)[C@H]3CC[C@@H]31)c(CC)n2CC(=O)Nc1ccc(C(F)(F)F)cc1Cl` [I-226, N-[2-chloro-4-(trifluoromethyl)phenyl]-2-{6-ethyl-7-[(1S,6S)-5-(5-hydroxy-6-methylpyrimidine-4-carbonyl)-2,5-diazabicyclo[4.2.0]octan-2-yl]-2-[(methyl-d3)amino]-8-oxo-5H,8H-pyrido[2,3-b]pyrazin-5-yl}acetamide], for which, in test [1], the IC50 is at most 5 nM. For the same compound, the EC50 in test [2] (Homo sapiens, HCT-116, 24 h) was below 500 nM.

As for `CCc1c(N2CCN(C(=O)c3ncnc(C)c3O)[C@H]3CC[C@@H]32)c(=O)c2nc(NC)cnc2n1CC(=O)Nc1ccc(C(F)(F)F)cc1Cl` [I-227, N-[2-chloro-4-(trifluoromethyl)phenyl]-2-{6-ethyl-7-[(1S,6S)-5-(5-hydroxy-6-methylpyrimidine-4-carbonyl)-2,5-diazabicyclo[4.2.0]octan-2-yl]-2-(methylamino)-8-oxo-5H,8H-pyrido[2,3-b]pyrazin-5-yl}acetamide], in test [1], the IC50 is at most 5 nM. For the same compound, the EC50 in test [2] is below 500 nM.

As for `CCc1c(N2CCN(C(=O)c3c(OC)ncc(C)c3O)C[C@@H]2C)c(=O)c2nc(N(C)C)cnc2n1CC(=O)Nc1ccc(C(F)(F)F)cc1Cl` [I-228, N-[2-chloro-4-(trifluoromethyl)phenyl]-2-[2-(dimethylamino)-6-ethyl-7-[(2S)-4-(4-hydroxy-2-methoxy-5-methylpyridine-3-carbonyl)-2-methylpiperazin-1-yl]-8-oxo-5H,8H-pyrido[2,3-b]pyrazin-5-yl]acetamide], the IC50 in test [1] was 5 to 50 nM. Also, in test [2] (Homo sapiens, HCT-116, 24 h), the EC50 is below 500 nM.

(Values after patent US20250034136A1 (Nimbus Wadjet, Inc., priority 2023, published 2025).)
